# Patent US20130244963A1 (Portola Pharmaceuticals, Inc., priority 2010, published 2013)
# What was measured:
# [1] = system: collagen induced arthritis (CIA); test: Rat Collagen Induced Arthritis (CIA) Model, hind paw inflammation score; format: in vivo; parameters: scale not given here
# Description: Holmdahl R, Lorentzen J C, Lu S, Olofsson P, Wester L, Holmberg J, et al. Arthritis in rats with non-immunogenic adjuvants as models for rheumatoid arthritis. […] On day 10, the rats were boosted with a second subcutaneous injection. Test article administration was initiated when at least one hind paw was inflamed (clinical arthritis score=1) and enrollment into a treatment group was designated as day 1 of the study for each individual animal (n=4 to 8/dose group). Progression of disease was evidenced by increased edema and erythema of one or both ankle joints, followed by the involvement of the metatarsal and interphalangeal joints. […] Hind paws were scored daily (inflammation score) for progression of disease and evaluated for histopathological changes in cartilage structure, cellularity, matrix glycoaminoglycans, and synovial inflammation at the end of the 16-day treatment course. […] In Tables below, mean scores are calculated for all animals in dosed group over the entire experimental time course.
# [2] = Lymphocyte counts in rats with bovine collagen antibody mediated inflammation; format: in vivo, rat
# Description: In 7 control rats treated with vehicle, lymphocyte count was […]. In 4 rats treated with dexamethasone, count=2.32×10^3/μL, p=0.42. However 3 out of 4 of rats did suffer from lymphopenia.
# Syk (Y525/526) = test: BCR-induced Syk (Y525/526) autophosphorylation in NHL cell lines; format: cell-based; details: Homo sapiens, SU-DHL-4; SU-DHL4; read-out: BCR-induced Syk (Y525/526) auto-phosphorylation (IC50)
# pBLNK = test: BCR-induced pBLNK formation in NHL cell lines; format: cell-based; details: Homo sapiens
# pERK [3] = test: BCR-induced pERK formation in NHL cell lines; format: cell-based; details: Homo sapiens
# pAKT = test: BCR-induced pAKT formation in NHL cell lines; format: cell-based; details: Homo sapiens, Ramos
# SU-DHL4 [4] = test: Induction of apoptosis, Annexin V binding; format: cell-based
# SU-DHL6 [5] = test: Induction of apoptosis, Annexin V binding; format: cell-based
# SU-DHL4 [6] = test: Induction of apoptosis, caspase 3 cleavage; format: cell-based
# SU-DHL6 [7] = test: Induction of apoptosis, caspase 3 cleavage; format: cell-based
# pERK [8] = test: B cell activity in human whole blood: BCR-induced pERK formation; format: cell-based; details: healthy normal volunteers, ex vivo
# CD69 [9] = test: B cell activity in human whole blood: BCR-induced CD69 expression; format: cell-based; details: healthy normal volunteers, ex vivo
# CD69 [10] = test: Whole blood B cell activation (CD69) in RA patients with or without MTX; format: cell-based, human; details: blood from RA patients on stable doses of MTX (n=18) versus without MTX (n=14); anti IgD activation
# Description: In vitro study of whole blood B cell activation (CD69) in stable RA patients treated with MTX (n=18) or without MTX (n=14).
# DHL4 = test: Viability of DLBCL cell line DHL4 by luminescent ATP detection (Cell Titer Glo); format: cell-based; details: single agents; three days; ATP luminescence
# Procedure: The final concentration of solvent (DMSO) during experimental time course was 1%. The robotic system Biomek 2 was used for all pipetting steps. After three days at 37 degrees in a tissue culture incubator, viability of cells was determined by lysis and luminescent ATP detection. ATP detection was carried out by addition of 20 μL Cell Titer Glo (Promega) following the protocol provided by manufacturer.
# The concentrations of the inhibitors required to obtain 50, 75 or 90 percent inhibition are plotted in an isobologram (Tallarida R J. Dose response relations in pharmacology, Chapman and Hall/CRC, 2000).
# leukocytes = test: Leukocyte rolling and adhesion in whole blood on collagen type 1 + JAM-C surface; format: cell-based, human; details: for percentage increase in fluorescence intensity over baseline: Compound 1 3 uM
# Description: Junction adhesion molecule C (JAM-C) mediates recruitment and adhesion of leukocytes to synovium of patients with rheumatoid arthritis (Rabquer B J, Arthritis Rheum, 2008; 58(10):3020-9). This is an important step in the etiology of rheumatoid arthritis and disruption of this activity may have therapeutic benefit in the treatment of patients with inflammatory diseases such as RA. In order to use an in-vitro experimental system to mimic migration and adhesion of leukocytes, we have used a collagen and JAM-C coated surface for the assay.
# Leukocyte rolling and adhesion in human whole blood (from healthy normal volunteers or patients with rheumatoid arthritis) was monitored using real time fluorescence microscopy. […] Prior to experimentation, leukocytes were labeled in whole blood with Rhodamine 6G to permit visualization by fluorescence microscopy. The increase in fluorescence intensity is proportional to the amount of fluorescently labeled leukocytes recruited under the area of observation. […] For quantitation of inhibitory activity (TABLE), data are presented as percentage increase in fluorescence intensity over baseline 180 and 360 sec post initiation of the blood perfusion (see FIG. 4).
# Flt3 = target: T1, Flt3 (Homo sapiens, UniProt P36888); details: cited from earlier work
# T1 sequence (P36888 27-993): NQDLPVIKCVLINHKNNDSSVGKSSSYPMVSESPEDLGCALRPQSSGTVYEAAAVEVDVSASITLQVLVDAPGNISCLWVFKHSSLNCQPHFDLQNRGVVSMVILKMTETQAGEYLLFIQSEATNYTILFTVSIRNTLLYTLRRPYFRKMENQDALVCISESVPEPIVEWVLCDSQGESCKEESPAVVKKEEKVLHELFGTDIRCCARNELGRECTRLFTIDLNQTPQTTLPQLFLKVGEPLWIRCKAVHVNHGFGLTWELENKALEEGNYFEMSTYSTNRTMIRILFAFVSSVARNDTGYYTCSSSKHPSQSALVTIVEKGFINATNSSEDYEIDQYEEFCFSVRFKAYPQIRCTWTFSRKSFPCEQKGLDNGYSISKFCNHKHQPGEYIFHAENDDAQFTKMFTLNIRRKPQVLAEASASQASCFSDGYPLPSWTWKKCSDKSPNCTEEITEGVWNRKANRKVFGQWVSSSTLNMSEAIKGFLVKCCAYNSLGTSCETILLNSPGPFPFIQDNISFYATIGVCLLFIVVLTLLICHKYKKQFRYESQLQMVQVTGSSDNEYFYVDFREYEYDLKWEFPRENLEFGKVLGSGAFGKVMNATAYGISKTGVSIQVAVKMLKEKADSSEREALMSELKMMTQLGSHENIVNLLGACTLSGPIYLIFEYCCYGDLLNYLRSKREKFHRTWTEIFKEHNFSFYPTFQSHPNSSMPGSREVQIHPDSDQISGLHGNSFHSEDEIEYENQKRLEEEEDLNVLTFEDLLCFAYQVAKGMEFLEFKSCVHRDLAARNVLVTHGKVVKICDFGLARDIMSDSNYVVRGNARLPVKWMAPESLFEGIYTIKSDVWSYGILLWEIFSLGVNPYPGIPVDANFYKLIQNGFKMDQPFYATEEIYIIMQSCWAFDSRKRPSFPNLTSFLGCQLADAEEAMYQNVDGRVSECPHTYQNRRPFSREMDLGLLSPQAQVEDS
# cKit = cKit (Homo sapiens, UniProt P10721); details: cited from earlier work
# Sequence of cKit (P10721 26-976): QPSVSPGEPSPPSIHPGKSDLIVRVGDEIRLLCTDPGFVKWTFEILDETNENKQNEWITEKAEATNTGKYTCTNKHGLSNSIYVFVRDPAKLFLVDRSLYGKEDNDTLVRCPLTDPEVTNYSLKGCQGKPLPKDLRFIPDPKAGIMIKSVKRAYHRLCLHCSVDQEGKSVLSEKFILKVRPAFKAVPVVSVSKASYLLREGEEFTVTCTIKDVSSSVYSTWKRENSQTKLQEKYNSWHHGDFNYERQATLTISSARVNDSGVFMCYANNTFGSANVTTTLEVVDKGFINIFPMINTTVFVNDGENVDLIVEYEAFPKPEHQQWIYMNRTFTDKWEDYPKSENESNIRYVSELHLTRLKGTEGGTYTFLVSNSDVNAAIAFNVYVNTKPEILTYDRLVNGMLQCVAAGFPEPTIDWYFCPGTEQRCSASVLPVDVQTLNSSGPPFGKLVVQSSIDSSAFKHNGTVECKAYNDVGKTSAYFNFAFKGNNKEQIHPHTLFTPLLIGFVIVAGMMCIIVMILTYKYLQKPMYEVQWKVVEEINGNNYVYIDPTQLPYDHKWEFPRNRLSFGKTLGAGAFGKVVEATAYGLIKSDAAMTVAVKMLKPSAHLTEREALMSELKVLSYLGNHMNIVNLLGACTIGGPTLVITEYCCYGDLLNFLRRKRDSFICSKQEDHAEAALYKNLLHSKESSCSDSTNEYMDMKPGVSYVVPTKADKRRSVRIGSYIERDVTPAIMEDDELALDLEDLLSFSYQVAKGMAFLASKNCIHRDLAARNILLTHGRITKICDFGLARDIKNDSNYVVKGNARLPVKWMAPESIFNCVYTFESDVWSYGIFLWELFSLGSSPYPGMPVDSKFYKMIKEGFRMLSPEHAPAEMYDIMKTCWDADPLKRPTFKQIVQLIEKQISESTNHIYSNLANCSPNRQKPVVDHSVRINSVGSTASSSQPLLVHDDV
# JAK kinases = details: cited from earlier work
# Src kinase = Src kinase (Homo sapiens, UniProt P12931); details: cited from earlier work
# Sequence of Src kinase (P12931 whole entry): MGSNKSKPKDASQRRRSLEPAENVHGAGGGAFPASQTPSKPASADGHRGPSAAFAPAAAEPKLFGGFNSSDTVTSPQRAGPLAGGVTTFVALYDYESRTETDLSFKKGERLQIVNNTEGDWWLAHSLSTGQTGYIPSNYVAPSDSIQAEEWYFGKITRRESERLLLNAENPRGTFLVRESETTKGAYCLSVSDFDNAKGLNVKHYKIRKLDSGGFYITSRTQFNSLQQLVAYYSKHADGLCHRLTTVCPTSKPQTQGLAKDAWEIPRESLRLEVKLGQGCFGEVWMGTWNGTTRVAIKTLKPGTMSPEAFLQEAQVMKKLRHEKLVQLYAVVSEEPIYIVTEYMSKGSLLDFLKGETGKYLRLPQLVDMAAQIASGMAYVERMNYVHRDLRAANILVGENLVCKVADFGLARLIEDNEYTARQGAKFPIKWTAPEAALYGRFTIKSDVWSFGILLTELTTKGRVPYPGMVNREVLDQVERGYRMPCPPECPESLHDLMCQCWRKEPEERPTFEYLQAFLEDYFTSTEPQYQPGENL
# [11] = Compound 1 5 mg/kg, first experimental design (5/15/50 mg/kg)
# [12] = Compound 1 5 mg/kg, second experimental design (5/10/15 mg/kg)
# [13] = Compound 1 10 mg/kg, second experimental design (5/10/15 mg/kg)
# [14] = Compound 1 15 mg/kg, first experimental design (5/15/50 mg/kg)
# [15] = Compound 1 15 mg/kg, second experimental design (5/10/15 mg/kg)
# [16] = Compound 1 50 mg/kg, first experimental design (5/15/50 mg/kg)
smiles,measurement,setting,value
"NC(=O)c1cnc(N[C@@H]2CCCC[C@@H]2N)nc1Nc1cccc(-n2nccn2)c1 [Compound 1, 4-(3-(2H-1,2,3-triazol-2-yl)phenylamino)-2-((1R,2S)-2-aminocyclohexylamino)pyrimidine-5-carboxamide]",Maximum Inflammation Score measurement,[1]; [11],5.625
same,Mean Inflammation Score,[1]; [11],4.868
same,Minimum Inflammation Score measurement,[1]; [11],1.5
same,Maximum Inflammation Score measurement,[1]; [12],4.75
same,Mean Inflammation Score,[1]; [12],3.57
same,Minimum Inflammation Score measurement,[1]; [12],1.38
same,Maximum Inflammation Score measurement,[1]; [13],3.00
same,Mean Inflammation Score,[1]; [13],2.15
same,Minimum Inflammation Score measurement,[1]; [13],1.13
same,Maximum Inflammation Score measurement,[1]; [14],1.125
same,Mean Inflammation Score,[1]; [14],0.949
same,Minimum Inflammation Score measurement,[1]; [14],0.75
same,Maximum Inflammation Score measurement,[1]; [15],1.38
same,Mean Inflammation Score,[1]; [15],1.016
same,Minimum Inflammation Score measurement,[1]; [15],0.63
same,Maximum Inflammation Score measurement,[1]; [16],1.0
same,Mean Inflammation Score,[1]; [16],0.169
same,Minimum Inflammation Score measurement,[1]; [16],0
same,effect on lymphocyte counts,[2]; administered as a single agent,does not produce a reduction in lymphocyte counts
same,IC50,"pBLNK; SU-DHL-4, SU-DHL4",160 nM
same,IC50,"pBLNK; SU-DHL-6, SU-DHL6",10 to 20 nM
same,IC50,pERK [3]; Ramos,0.05 to 0.125 µM
same,IC50,"pERK [3]; SU-DHL-6, SU-DHL6",0.1 µM
same,IC50,pAKT,0.05 to 0.125 µM
same,Induction of apoptosis— Annexin V binding (% +ve cells),SU-DHL4 [4],15.5 % +ve cells
same,Induction of apoptosis— Annexin V binding (% +ve cells),SU-DHL6 [5],20.3 % +ve cells
same,Induction of apoptosis— caspase 3 cleavage (% +ve cells),SU-DHL4 [6],26 % +ve cells
same,Induction of apoptosis— caspase 3 cleavage (% +ve cells),SU-DHL6 [7],47 % +ve cells
same,IC50,pERK [8],250 to 500 nM
same,IC50,CD69 [9],250 to 500 nM
same,Syk inhibitory potency in whole blood B cell activation (CD69),CD69 [10],higher (reduced IC50)
same,inhibitory activity on viability of DHL4 cells (in words),DHL4,dose responsive inhibitory activity
same,percentage increase in fluorescence intensity over baseline,"leukocytes; RA patient #8 on Adalimumab, 180 sec, vehicle 51%",7%
same,percentage increase in fluorescence intensity over baseline,"leukocytes; RA patient #8 on Adalimumab, 360 sec, vehicle 94%",63%
same,percentage increase in fluorescence intensity over baseline,"leukocytes; RA patient #10 on Methotrexate, 180 sec, vehicle 44%",29%
same,percentage increase in fluorescence intensity over baseline,"leukocytes; RA patient #10 on Methotrexate, 360 sec, vehicle 107%",86%
same,percentage increase in fluorescence intensity over baseline,"leukocytes; RA patient #11 on Methotrexate + prednisone, 180 sec, vehicle 165%",69%
same,percentage increase in fluorescence intensity over baseline,"leukocytes; RA patient #11 on Methotrexate + prednisone, 360 sec, vehicle 178%",183%
same,percentage increase in fluorescence intensity over baseline,"leukocytes; RA patient #12 on Etanercept, 180 sec, vehicle 61%",17%
same,percentage increase in fluorescence intensity over baseline,"leukocytes; RA patient #12 on Etanercept, 360 sec, vehicle 131%",53%
same,number of adherent leukocytes (in words),"leukocytes; whole blood from RA patients (mild, moderate, severe) on standard of care, in vitro addition of 3 uM",reduces the number of adherent cells
same,number of leukocytes adhering to collagen and JAM-C coated surface (in words),leukocytes; whole blood from healthy donors without inflammatory disease,reduces the number of leukocytes adhering
"C[C@@H]1C[C@H]2[C@@H]3CCC4=CC(=O)C=C[C@]4(C)[C@@]3(F)[C@@H](O)C[C@]2(C)[C@@]1(O)C(=O)CO [Dexamethasone, reference compound]",Maximum Inflammation Score measurement,[1]; Dexamethasone 1 mg/Kg,1.50
same,Mean Inflammation Score,[1]; Dexamethasone 1 mg/Kg,0.188
same,Minimum Inflammation Score measurement,[1]; Dexamethasone 1 mg/Kg,0.0
same,rats suffering from lymphopenia,"[2]; Lewis, rat, in vivo, 16 day",3 out of 4
same,lymphocyte count (group),"[2]; rat, in vivo",2320 µL⁻¹
"COc1cccc2c1C(=O)c1c(O)c3c(c(O)c1C2=O)C[C@@](O)(C(=O)CO)C[C@@H]3O[C@H]1C[C@H](N)[C@H](O)[C@H](C)O1 [Doxorubicin, reference compound]",inhibitory activity on viability of DHL4 cells (in words),DHL4,dose responsive inhibitory activity
COc1cc(Nc2ncc(F)c(Nc3ccc4c(n3)N(COP(=O)(O)O)C(=O)C(C)(C)O4)n2)cc(OC)c1OC [Fostamatinib disodium],activity against Flt3,Flt3,active
same,activity against cKit,cKit,active
same,activity against JAK kinases,JAK kinases,active
same,activity against Src kinase,Src kinase,not against Src kinsase
"CN(Cc1cnc2nc(N)nc(N)c2n1)c1ccc(C(=O)N[C@@H](CCC(=O)O)C(=O)O)cc1 [Methotrexate, reference compound]",Maximum Inflammation Score measurement,[1]; Methotrexate 0.1 mg/kg,4.63
same,Minimum Inflammation Score measurement,[1]; Methotrexate 0.1 mg/kg,1.25
same,Mean Inflammation Score,"[1]; Methotrexate 0.1 mg/kg, all animals over entire time course",3.65
same,Maximum Inflammation Score measurement,[1]; Methotrexate 0.3 mg/kg,5.00
same,Minimum Inflammation Score measurement,[1]; Methotrexate 0.3 mg/kg,1.00
same,Mean Inflammation Score,"[1]; Methotrexate 0.3 mg/kg, all animals over entire time course",4.02
same,Maximum Inflammation Score measurement,[1]; Methotrexate 1.0 mg/kg,4.00
same,Minimum Inflammation Score measurement,[1]; Methotrexate 1.0 mg/kg,1.13
same,Mean Inflammation Score,"[1]; Methotrexate 1.0 mg/kg, all animals over entire time course",2.90
same,Maximum Inflammation Score measurement,[1]; Methotrexate 2.0 mg/kg,2.50
same,Minimum Inflammation Score measurement,[1]; Methotrexate 2.0 mg/kg,1.00
same,Mean Inflammation Score,"[1]; Methotrexate 2.0 mg/kg, all animals over entire time course",2.11
